The test system of the data set is CCRIS mutagenicity, Ames/micronucleus/aberration tests. Kind of data set: CCRIS mutagenicity studies.
Setting [1] is: Test System: AMES SALMONELLA TYPHIMURIUM, Strain/Indicator: TA98, Metabolic Activation: HAMSTER, LIVER, S-9, AROCLOR 1254 (10%), Method: PREINCUBATION
Where [2] appears, read: Test System: AMES SALMONELLA TYPHIMURIUM, Strain/Indicator: TA98, Metabolic Activation: NONE, Method: PREINCUBATION
[3] abbreviates: Test System: AMES SALMONELLA TYPHIMURIUM, Strain/Indicator: TA98, Metabolic Activation: RAT, LIVER, S-9, AROCLOR 1254 (10%), Method: PREINCUBATION
Setting [4] is: Test System: AMES SALMONELLA TYPHIMURIUM, Strain/Indicator: TA100, Metabolic Activation: HAMSTER, LIVER, S-9, AROCLOR 1254 (10%), Method: PREINCUBATION
The mark [5] stands for this setting: Test System: AMES SALMONELLA TYPHIMURIUM, Strain/Indicator: TA100, Metabolic Activation: NONE, Method: PREINCUBATION
Where [6] appears, read: Test System: AMES SALMONELLA TYPHIMURIUM, Strain/Indicator: TA100, Metabolic Activation: RAT, LIVER, S-9, AROCLOR 1254 (10%), Method: PREINCUBATION
Where [7] appears, read: Test System: AMES SALMONELLA TYPHIMURIUM, Strain/Indicator: TA1535, Metabolic Activation: HAMSTER, LIVER, S-9, AROCLOR 1254 (10%), Method: PREINCUBATION
Setting [8] is: Test System: AMES SALMONELLA TYPHIMURIUM, Strain/Indicator: TA1535, Metabolic Activation: NONE, Method: PREINCUBATION
[9] abbreviates: Test System: AMES SALMONELLA TYPHIMURIUM, Strain/Indicator: TA1535, Metabolic Activation: RAT, LIVER, S-9, AROCLOR 1254 (10%), Method: PREINCUBATION

Calls of active or inactive are those of the source. How the calls were made is not given here.

For `C[C@](N)(Cc1ccc(O)c(O)c1)C(=O)O`, the mutagenic call by setting is: (End Point: IN VITRO CHROMOSOMAL ABERRATIONS, Test System: CHO CELLS, Metabolic Activation: NONE) “inactive; negative”; (End Point: IN VITRO CHROMOSOMAL ABERRATIONS, Test System: CHO CELLS, Metabolic Activation: RAT, LIVER, S-9, AROCLOR 1254) “inactive; negative; testing limited by solubility of the chemical”; (Test System: AMES SALMONELLA TYPHIMURIUM, Strain/Indicator: TA97, Metabolic Activation: HAMSTER, LIVER, S-9, AROCLOR 1254 (10 OR 30%), Method: PREINCUBATION) “inactive; negative”; (Test System: AMES SALMONELLA TYPHIMURIUM, Strain/Indicator: TA97, Metabolic Activation: HAMSTER, LIVER, S-9, AROCLOR 1254, Method: PREINCUBATION) “inactive; negative”; (Test System: AMES SALMONELLA TYPHIMURIUM, Strain/Indicator: TA97, Metabolic Activation: NONE, Method: PREINCUBATION) “inactive; negative”; (Test System: AMES SALMONELLA TYPHIMURIUM, Strain/Indicator: TA97, Metabolic Activation: RAT, LIVER, S-9, AROCLOR 1254 (10 OR 30%), Method: PREINCUBATION) “inactive; negative”. Further, the mutagenic call (Test System: AMES SALMONELLA TYPHIMURIUM, Strain/Indicator: TA97, Metabolic Activation: RAT, LIVER, S-9, AROCLOR 1254, Method: PREINCUBATION) was “inactive; negative”; the mutagenic call under setting [1] was “inactive; negative”; the mutagenic call (Test System: AMES SALMONELLA TYPHIMURIUM, Strain/Indicator: TA98, Metabolic Activation: HAMSTER, LIVER, S-9, AROCLOR 1254 (30%), Method: PREINCUBATION) is “inactive; negative”; the mutagenic call (Test System: AMES SALMONELLA TYPHIMURIUM, Strain/Indicator: TA98, Metabolic Activation: HAMSTER, LIVER, S-9, AROCLOR 1254, Method: PREINCUBATION) is “inactive; negative”; the mutagenic call under setting [2] was “inactive; negative”; the mutagenic call under setting [3] is “inactive; negative”. Moreover, the mutagenic call was “inactive; negative” (Test System: AMES SALMONELLA TYPHIMURIUM, Strain/Indicator: TA98, Metabolic Activation: RAT, LIVER, S-9, AROCLOR 1254 (30%), Method: PREINCUBATION); “inactive; negative” (Test System: AMES SALMONELLA TYPHIMURIUM, Strain/Indicator: TA98, Metabolic Activation: RAT, LIVER, S-9, AROCLOR 1254, Method: PREINCUBATION); “inactive; negative” under setting [4]; “inactive; negative” (Test System: AMES SALMONELLA TYPHIMURIUM, Strain/Indicator: TA100, Metabolic Activation: HAMSTER, LIVER, S-9, AROCLOR 1254 (30%), Method: PREINCUBATION); “inactive; negative” (Test System: AMES SALMONELLA TYPHIMURIUM, Strain/Indicator: TA100, Metabolic Activation: HAMSTER, LIVER, S-9, AROCLOR 1254, Method: PREINCUBATION); “inactive; negative” under setting [5]. The mutagenic call runs as follows: under setting [6], “inactive; negative”; (Test System: AMES SALMONELLA TYPHIMURIUM, Strain/Indicator: TA100, Metabolic Activation: RAT, LIVER, S-9, AROCLOR 1254 (30%), Method: PREINCUBATION) “inactive; negative”; (Test System: AMES SALMONELLA TYPHIMURIUM, Strain/Indicator: TA100, Metabolic Activation: RAT, LIVER, S-9, AROCLOR 1254, Method: PREINCUBATION) “inactive; negative”; under setting [7], “inactive; negative”; (Test System: AMES SALMONELLA TYPHIMURIUM, Strain/Indicator: TA1535, Metabolic Activation: HAMSTER, LIVER, S-9, AROCLOR 1254 (30%), Method: PREINCUBATION) “inactive; negative”; (Test System: AMES SALMONELLA TYPHIMURIUM, Strain/Indicator: TA1535, Metabolic Activation: HAMSTER, LIVER, S-9, AROCLOR 1254, Method: PREINCUBATION) “inactive; negative”. The mutagenic call is “inactive; negative” under setting [8]; “inactive; negative” under setting [9]; “inactive; negative” (Test System: AMES SALMONELLA TYPHIMURIUM, Strain/Indicator: TA1535, Metabolic Activation: RAT, LIVER, S-9, AROCLOR 1254 (30%), Method: PREINCUBATION); “inactive; negative” (Test System: AMES SALMONELLA TYPHIMURIUM, Strain/Indicator: TA1535, Metabolic Activation: RAT, LIVER, S-9, AROCLOR 1254, Method: PREINCUBATION).

For the molecule `C=CCc1ccc(O)c(O)c1`, the mutagenic call was “inactive; negative” (Test System: AMES SALMONELLA TYPHIMURIUM, Strain/Indicator: TA97, Metabolic Activation: NONE, Method: STANDARD PLATE); “inactive; negative” (Test System: AMES SALMONELLA TYPHIMURIUM, Strain/Indicator: TA97, Metabolic Activation: RAT, LIVER, S-9, AROCLOR 1254, Method: STANDARD PLATE); “inactive; negative” (Test System: AMES SALMONELLA TYPHIMURIUM, Strain/Indicator: TA98, Metabolic Activation: NONE, Method: STANDARD PLATE); “inactive; negative” (Test System: AMES SALMONELLA TYPHIMURIUM, Strain/Indicator: TA98, Metabolic Activation: RAT, LIVER, S-9, AROCLOR 1254, Method: STANDARD PLATE); “inactive; negative” (Test System: AMES SALMONELLA TYPHIMURIUM, Strain/Indicator: TA100, Metabolic Activation: NONE, Method: STANDARD PLATE); “inactive; negative” (Test System: AMES SALMONELLA TYPHIMURIUM, Strain/Indicator: TA100, Metabolic Activation: RAT, LIVER, S-9, AROCLOR 1254, Method: STANDARD PLATE). Further, the mutagenic call was “active; positive” (Test System: AMES SALMONELLA TYPHIMURIUM, Strain/Indicator: TA102, Metabolic Activation: NONE, Method: STANDARD PLATE); “inactive; negative” (Test System: AMES SALMONELLA TYPHIMURIUM, Strain/Indicator: TA102, Metabolic Activation: RAT, LIVER, S-9, AROCLOR 1254, Method: STANDARD PLATE); “inactive; negative” (Test System: AMES SALMONELLA TYPHIMURIUM, Strain/Indicator: TA1535, Metabolic Activation: NONE, Method: STANDARD PLATE); “inactive; negative” (Test System: AMES SALMONELLA TYPHIMURIUM, Strain/Indicator: TA1535, Metabolic Activation: RAT, LIVER, S-9, AROCLOR 1254, Method: STANDARD PLATE); “inactive; negative” (Test System: AMES SALMONELLA TYPHIMURIUM, Strain/Indicator: TA1538, Metabolic Activation: NONE, Method: STANDARD PLATE); “inactive; negative” (Test System: AMES SALMONELLA TYPHIMURIUM, Strain/Indicator: TA1538, Metabolic Activation: RAT, LIVER, S-9, AROCLOR 1254, Method: STANDARD PLATE).

Turning to `CC(C)NO`, the mutagenic call is, setting by setting: (Test System: CHINESE HAMSTER V-79, Strain/Indicator: V-79/6-THIOGUANINE, Metabolic Activation: NONE, Method: SUSPENSION) “active; positive”; (Test System: UDS RODENT HEPATOCYTES, Strain/Indicator: THY INCORP (NON-S-PHASE), Metabolic Activation: NONE, Method: LIQUID SCINTILLATION COUNTING) “inactive; negative”.

Consider `CC(C)CCC[C@@H](C)[C@H]1CC[C@H]2[C@@H]3CC=C4C[C@@H](OC(=O)Cc5ccc(N(CCCl)CCCl)cc5)CC[C@]4(C)[C@H]3CC[C@]12C`, for which the mutagenic call is, setting by setting: under setting [1], “inactive; negative”; under setting [2], “inactive; negative”; under setting [3], “inactive; negative”; under setting [4], “inactive; negative”; under setting [5], “inactive; negative”; under setting [6], “inactive; negative”. Moreover, the mutagenic call under setting [7] was “inactive; negative”; the mutagenic call under setting [8] was “inactive; negative”; the mutagenic call under setting [9] is “inactive; negative”; the mutagenic call (Test System: AMES SALMONELLA TYPHIMURIUM, Strain/Indicator: TA1537, Metabolic Activation: HAMSTER, LIVER, S-9, AROCLOR 1254 (10%), Method: PREINCUBATION) was “inactive; negative”; the mutagenic call (Test System: AMES SALMONELLA TYPHIMURIUM, Strain/Indicator: TA1537, Metabolic Activation: NONE, Method: PREINCUBATION) is “inactive; negative”; the mutagenic call (Test System: AMES SALMONELLA TYPHIMURIUM, Strain/Indicator: TA1537, Metabolic Activation: RAT, LIVER, S-9, AROCLOR 1254 (10%), Method: PREINCUBATION) is “inactive; negative”.

(Values after PubChem BioAssay AID1259407 (Chemical Carcinogenesis Research Information System (CCRIS), 2018).)
